How the values were obtained:
[1] = tested on: HEK-293 cells/tumour cells; assay: Mean selective index, HEK-293 vs tumour cells; format: cell-based, human; conditions: MSI = IC50 values HEK-293 cells/IC50 values tumour cells
Experimental: (§1) The cytotoxicity of the compounds 1–14 was assessed by following the reduction of MTT (3-(4,5-Dimethylthiazol-2-yl)-2,5-diphenyltetrazolium bromide) to formazan blue. Cells were seeded into 96-well plates at a density of 10,000 cells/well for 24 h and then they were further incubated for 24 h with or without the quinones. Doxorubicin was used as a standard chemotherapeutic agent (positive control). Cells were washed twice with warm PBS and further incubated with MTT (0.5 mg/mL) for 2 h at 37 °C. Blue formazan crystals were solubilized by adding 100 µL DMSO/well, and the optical density of colored solutions was subsequently read at 550 nm in a microplate reader Tecan infinite M200 Pro (Männedorf, Switzerland). The compounds 1–14 were dissolved in DMSO (stock solution at 100 mM) and further diluted to be evaluated at the following concentrations: 0 μM, 1 μM, 10 μM, 20 μM, 40 μM, 60 μM, 80 μM and 100 μM. Results are expressed as % of MTT reduction compared to untreated control conditions. The IC50 values were calculated using the GraphPad Prism 8.0.2 software (San Diego, CA, USA).

TP53 = assay: RT-qPCR mRNA level of TP53 in DU-145 cells; format: cell-based, human; conditions: DU145 cells, 24 h; compound 4 at 1 µM, compound 11 at 6 µM; normalized to B2M, 2^−∆∆Ct vs vehicle (1.00); mean ± SEM
Experimental: (§2) The […] cells were cultured as previously mentioned. […] Afterwards, they were washed with phosphate-buffered saline. The cellular lysate was prepared with E.Z.N.A.®RNA-Lock Reagent (Omega Bio-tek, Norcross, GA, USA) to preserve and immediately stabilize the total RNA for the subsequent gene expression assays. The total RNA isolated from the cells using the E.Z.N.A.®HP Total RNA Isolation Kit (Omega Bio-tek) was reverse-transcribed to cDNA using the AffinityScript QPCR cDNA Synthesis Kit (Agilent Technologies, Santa Clara, CA, USA) and 1000 ng of the RNA sample.
(§3) The cDNA synthesized was employed for qPCR using Brilliant III Ultra-Fast SYBR®Green QPCR Master Mix (Agilent Technologies) in an Mx3000P qPCR System (Agilent Technologies), employing a 96-well plate with 20 μL of PCR reaction per well and 10 pmol each of forward and reverse gene-specific primers. Nine genes were analyzed: B2M, Bcl2, CDC25A, CCN2, GSR, HDAC4, mTOR, TNF, TP53 and their quantitative real-time (qPCR) primer sequences are reported in Table S1 (supplementary material). The relative gene expressions were determined using Beta-2-microglobulin (B2M) as housekeeping, and the delta-delta Ct method (2^−∆∆Ct method) with regard to the vehicle-treated group (i.e., the reference group). Five biological replicates were used from each group (treated and reference group). […]

Bcl-2 = assay: RT-qPCR mRNA level of Bcl-2 in DU-145 cells; format: cell-based, human; conditions: DU145 cells, 24 h; compound 4 at 1 µM, compound 11 at 6 µM; normalized to B2M, 2^−∆∆Ct vs vehicle (1.00); mean ± SEM
Experimental: as §2, §3

[2] = Half-wave potentials by cyclic voltammetry; format: physicochemical
Experimental: Calculation of lipophilicity (ClogP) and molar refractivity (CMR) was assessed by using the ChemBioDraw Ultra 11.0 software and the obtained values are shown in Table 3. Redox potentials of 2-phenylamino-3-acyl-1,4-naphtoquinones 1–14 were measured by cyclic voltammetry at room temperature in acetonitrile as solvent using a platinum electrode and 0.1M tetraethylammonium tetrafluoroborate as the supporting electrolyte.

HDAC4 = assay: RT-qPCR mRNA level of HDAC4 in DU-145 cells; format: cell-based, human; conditions: DU145 cells, 24 h; compound 4 at 1 µM, compound 11 at 6 µM; normalized to B2M, 2^−∆∆Ct vs vehicle (1.00); mean ± SEM
Experimental: as §2, §3

mTOR = assay: RT-qPCR mRNA level of mTOR in DU-145 cells; format: cell-based, human; conditions: DU145 cells, 24 h; compound 4 at 1 µM, compound 11 at 6 µM; normalized to B2M, 2^−∆∆Ct vs vehicle (1.00); mean ± SEM; * p < 0.05 vs vehicle
Experimental: as §2, §3

CCN2 = assay: RT-qPCR mRNA level of CCN2 in DU-145 cells; format: cell-based, human; conditions: DU145 cells, 24 h; compound 4 at 1 µM, compound 11 at 6 µM; normalized to B2M, 2^−∆∆Ct vs vehicle (1.00); mean ± SEM
Experimental: as §2, §3

GSR = assay: RT-qPCR mRNA level of GSR in DU-145 cells; format: cell-based, human; conditions: DU145 cells, 24 h; compound 4 at 1 µM, compound 11 at 6 µM; normalized to B2M, 2^−∆∆Ct vs vehicle (1.00); mean ± SEM
Experimental: as §2, §3

[3] = tested on: DU-145 (prostate cancer cells); assay: MTT cell survival assay, DU-145 prostate cancer cells; format: cell-based; conditions: Homo sapiens, MTT test, cells incubated at 37 °C for 48 h (Table 1 footnote), mean ± SEM, n = 3
Experimental: (§4) Human cancer cell lines from bladder (T24), prostate (DU–145), breast (MCF–7) and non-tumor HEK-293 cells were obtained from the American Type Culture Collection (ATCC, Manassas, VA, USA). The cultures were maintained at a density of 1–2 × 10^5 cells/mL and the medium was changed at 48- and 72-h intervals. They were cultured in high-glucose Dulbecco’s modified Eagle medium (Gibco, Grand Island, NY, USA) supplemented with 10% fetal calf serum, penicillin (100 U/mL) and streptomycin (100 μg/mL). All cultures were kept at 37 °C in 95% air/5% CO2 at 100% humidity. Phosphate-buffered saline (PBS) was purchased from Gibco. Cells were incubated at the indicated times at 37 °C with or without compounds 1–14 at various concentrations.
as §1, with “Cells were seeded into 96-well plates at a density of 10,000 cells/well for 24 h and then they were further incubated for 24 h with or without the quinones.” left out

TNF = assay: RT-qPCR mRNA level of TNF in DU-145 cells; format: cell-based, human; conditions: DU145 cells, 24 h; compound 4 at 1 µM, compound 11 at 6 µM; normalized to B2M, 2^−∆∆Ct vs vehicle (1.00); mean ± SEM
CDC25A = assay: RT-qPCR mRNA level of CDC25A in DU-145 cells; format: cell-based, human; conditions: DU145 cells, 24 h; compound 4 at 1 µM, compound 11 at 6 µM; normalized to B2M, 2^−∆∆Ct vs vehicle (1.00); mean ± SEM
Experimental: as §2, §3

[4] = tested on: MCF-7 (mammary cancer cells); assay: MTT cell survival assay, MCF-7 mammary cancer cells; format: cell-based; conditions: Homo sapiens, MCF7; MTT test; cells incubated at 37 °C for 48 h (Table 1 footnote); mean ± SEM, n = 3
Experimental: as §4
as §1, with “Cells were seeded into 96-well plates at a density of 10,000 cells/well for 24 h and then they were further incubated for 24 h with or without the quinones.” left out

[5] = tested on: non-tumorigenic HEK-293 (embryonic kidney cells); assay: MTT cell survival assay, non-tumorigenic HEK-293 cells; format: cell-based; conditions: Homo sapiens, HEK293; MTT test; cells incubated at 37 °C for 48 h (Table 1 footnote); mean ± SEM, n = 3
Experimental: as §4
as §1, with “Cells were seeded into 96-well plates at a density of 10,000 cells/well for 24 h and then they were further incubated for 24 h with or without the quinones.” left out

[6] = tested on: T24 (Urinary bladder cancer cells); assay: MTT cell survival assay, T24 urinary bladder cancer cells; format: cell-based; conditions: Homo sapiens; MTT test; cells incubated at 37 °C for 48 h (Table 1 footnote); mean ± SEM, n = 3
Experimental: as §4
as §1, with “Cells were seeded into 96-well plates at a density of 10,000 cells/well for 24 h and then they were further incubated for 24 h with or without the quinones.” left out

[7] = tested on: MCF-7 human breast cancer cell line; parameters: method as in PMID 23167798; conditions: cytotoxicity against MCF-7; cited from earlier work

SMILES | MSI (mean selective index) [1] | Relative expression level (mRNA level) TP53 (TP53) | Relative expression level (mRNA level) Bcl-2 (Bcl-2) | −E^I½ (mV) ([2]; acetonitrile, platinum electrode, room temperature, negative of the potential) | half-wave potential ([2]; signed value) [mV] | Relative expression level (mRNA level) HDAC4 (HDAC4) | Relative expression level (mRNA level) mTOR (mTOR) | Relative expression level (mRNA level) CCN2 (CCN2) | Relative expression level (mRNA level) GSR (GSR) | IC50 [3] [µM] | Relative expression level (mRNA level) TNF (TNF) | Relative expression level (mRNA level) CDC25A (CDC25A) | IC50 [4] [µM] | IC50 [5] [µM] | IC50 [6] [µM] | IC50 [7] [µM]
O=C(C1=C(Nc2ccccc2)C(=O)c2ccccc2C1=O)c1ccccc1 [Compound 4, 2-(Phenylamino)-3-benzoylnaphthalene-1,4-dione] | 6.2 | 0.94 ± 0.04 | 0.81 ± 0.05 | 695 | −695 | 0.91 ± 0.05 | 0.84 ± 0.06 | 0.95 ± 0.03 | 0.95 ± 0.05 | 0.82 ± 0.1 | 1.20 ± 0.08 | 1.09 ± 0.10 | 5.16 ± 0.16 | 45.2 ± 6.59 | 15.8 ± 0.9 | –
O=C(C1=C(Nc2ccccc2)C(=O)c2ccccc2C1=O)c1ccco1 [compound V] | – | – | – | – | – | – | – | – | – | – | – | – | – | – | – | 1.5

From article PMC10254843, “Discovery of New 2-Phenylamino-3-acyl-1,4-naphthoquinones as Inhibitors of Cancer Cells Proliferation: Searching for Intra-Cellular Targets Playing a Role in Cancer Cells Survival” (Molecules, 2023)
